Test results reported in US12435044B2, “Pyridazinone herbicides and pyridazinone intermediates used to prepare a herbicide” (FMC Corporation, priority 2018, dated 2025).

Key:
Type in all cases: in vivo
[1] = test system: E. black nightshade (SOLPT; Solanum ptycanthum); experiment: Test H postemergence, mixtures of Cpd. No. 20 with atrazine or glyphosate
Text: (§1) This test evaluated the effect of mixtures of Cpd. No. 20 with atrazine or glyphosate on several plant species. Seeds of plant species selected from corn (ZEAMD; Zea mays, cv. ‘Pioneer 1184’), soybean (GLXMA; Glycine max, cv. Pioneer 35T58), giant foxtail (SETFA; Setaria faberi), Surinamgrass (BRADC; Brachiaria decumbens), fall panicum (PANDI; Panicum dichotomiflorum), velvetleaf (ABUTH; Abutilon threophrasti), mare's tail (ERICA; Conyza canadensis), barnyardgrass (ECHCG; Echinochloa crus-galli), large crabgrass (DIGSA; Digitaria sanguinalis), palmer amaranth (AMAPA; Amaranthus palmeri), common waterhemp (AMATU; Amaranthus rudis), E. black nightshade (SOLPT; Solanum ptycanthum), and common ragweed (AMBEL; Ambrosia artemisiifolia) were planted in pots containing Redi-Earth® planting medium (Scotts Company, 14111 Scottslawn Road, Marysville, Ohio 43041) comprising spaghnum peat moss, vermiculite, wetting agent and starter nutrients and treated postemergence using test chemicals formulated in a non-phytotoxic solvent mixture which included a surfactant. Plants ranged in height from 2 to 10 cm and were in the one- to two-leaf stage for the postemergence treatment. Treated plants and untreated controls were maintained in a greenhouse for approximately 14 d, after which time all treated plants were compared to untreated controls and visually evaluated for injury. Plant response ratings, summarized in Tables H1 & H2, are based on a 0 to 100 scale where 0 is no effect and 100 is complete control. A dash (-) response means no test result. Test results are presented as a mean of 4 reps.

[2] = test system: Surinamgrass (BRADC; Brachiaria decumbens); experiment: as above
Text: as §1

[3] = test system: barnyardgrass (ECHCG; Echinochloa crus-galli); experiment: as above
Text: as §1

[4] = test system: common ragweed (AMBEL; Ambrosia artemisiifolia); experiment: as above
Text: as §1

[5] = test system: common waterhemp (AMATU; Amaranthus rudis); experiment: as above
Text: as §1

[6] = test system: corn (ZEAMD; Zea mays, cv. ‘Pioneer 1184’); experiment: as above
Text: as §1

[7] = test system: fall panicum (PANDI; Panicum dichotomiflorum); experiment: as above
Text: as §1

[8] = test system: giant foxtail (SETFA; Setaria faberi); experiment: as above
Text: as §1

[9] = test system: large crabgrass (DIGSA; Digitaria sanguinalis); experiment: as above
Text: as §1

[10] = test system: mare's tail (ERICA; Conyza canadensis); experiment: as above
Text: as §1

[11] = test system: palmer amaranth (AMAPA; Amaranthus palmeri); experiment: as above
Text: as §1

[12] = test system: soybean (GLXMA; Glycine max, cv. Pioneer 35T58); experiment: as above
Text: as §1

[13] = test system: velvetleaf (ABUTH; Abutilon threophrasti); experiment: as above
Text: as §1

[14] = test system: corn (ZEAMD; Zea mays, cv. ‘Pioneer 1184’); experiment: Test of Tables L1 to L3, postemergence, mixtures of Cpd. No. 20 with benoxacor, isoxadifen-ethyl, or cloquintocet-mexyl; conditions: 31 g a.i./ha
Text: (§2) This test evaluated the effect of mixtures of Cpd. No. 20 with benoxacor, isoxadifen-ethyl, or cloquintocet-mexyl on several plant species. Seeds of plant species selected from corn (ZEAMD; Zea mays, cv. ‘Pioneer 1184’), soybean (GLXMA; Glycine max, cv. Pioneer 35T58), winter wheat (TRZAW; Triticum aetivum, cv. Arezzo), rice (ORYSS; Oryza sativa, cv. M202), and giant foxtail (SETFA; Setaria faberi) were planted in pots containing Redi-Earth® planting medium (Scotts Company, 14111 Scottslawn Road, Marysville, Ohio 43041) comprising spaghnum peat moss, vermiculite, wetting agent and starter nutrients and treated postemergence using test chemicals formulated in a non-phytotoxic solvent mixture which included a surfactant. Plants ranged in height from 7 to 10 cm and were in the one- to two-leaf stage for the postemergence treatment. Treated plants and untreated controls were maintained in a greenhouse for approximately 14 d, after which time all treated plants were compared to untreated controls and visually evaluated for injury. Plant response ratings, summarized in Tables L1 to L3, are based on a 0 to 100 scale where 0 is no effect and 100 is complete control. A dash (-) response means no test result. Test results are presented as a mean of 4 reps.

[15] = test system: giant foxtail (SETFA; Setaria faberi); experiment: as above; conditions: 31 g a.i./ha
Text: as §2

[16] = test system: rice (ORYSS; Oryza sativa, cv. M202); experiment: as above; conditions: 31 g a.i./ha
Text: as §2

[17] = test system: soybean (GLXMA; Glycine max, cv. Pioneer 35T58); experiment: as above; conditions: 31 g a.i./ha
Text: as §2

[18] = test system: winter wheat (TRZAW; Triticum aetivum, cv. Arezzo); experiment: as above; conditions: 31 g a.i./ha
Text: as §2

[19] = test system: corn (ZEAMD; Zea mays, cv. ‘Pioneer 1184’); experiment: Test M postemergence, mixtures of Cpd. No. 20 with isoxadifen-ethyl, cloquintocet-mexyl or Mefenpyr-diethyl; conditions: approx. 14 d, second component alone 31 g a.i./ha
Text: as §2, with “with” for “with benoxacor,”, “or cloquintocet-mexyl, or Mefenpyr-diethyl” for “or cloquintocet-mexyl”, “Arezzo), winter barley (HORVW; Hordeum vulgare, cv. Boone),” for “Arezzo),”, “Tables M1” for “Tables L1”, “to M3,” for “to L3,”, “of 3” for “of 4”

[20] = test system: giant foxtail (SETFA; Setaria faberi); experiment: as above; conditions: approx. 14 d, second component alone 31 g a.i./ha
Text: as §2, with “with” for “with benoxacor,”, “or cloquintocet-mexyl, or Mefenpyr-diethyl” for “or cloquintocet-mexyl”, “Arezzo), winter barley (HORVW; Hordeum vulgare, cv. Boone),” for “Arezzo),”, “Tables M1” for “Tables L1”, “to M3,” for “to L3,”, “of 3” for “of 4”

[21] = test system: rice (ORYSS; Oryza sativa, cv. M202); experiment: as above; conditions: approx. 14 d, second component alone 31 g a.i./ha
Text: as §2, with “with” for “with benoxacor,”, “or cloquintocet-mexyl, or Mefenpyr-diethyl” for “or cloquintocet-mexyl”, “Arezzo), winter barley (HORVW; Hordeum vulgare, cv. Boone),” for “Arezzo),”, “Tables M1” for “Tables L1”, “to M3,” for “to L3,”, “of 3” for “of 4”

[22] = test system: soybean (GLXMA; Glycine max, cv. Pioneer 35T58); experiment: as above; conditions: approx. 14 d, second component alone 31 g a.i./ha
Text: as §2, with “with” for “with benoxacor,”, “or cloquintocet-mexyl, or Mefenpyr-diethyl” for “or cloquintocet-mexyl”, “Arezzo), winter barley (HORVW; Hordeum vulgare, cv. Boone),” for “Arezzo),”, “Tables M1” for “Tables L1”, “to M3,” for “to L3,”, “of 3” for “of 4”

[23] = test system: winter barley (HORVW; Hordeum vulgare, cv. Boone); experiment: as above; conditions: approx. 14 d, second component alone 31 g a.i./ha
Text: as §2, with “with” for “with benoxacor,”, “or cloquintocet-mexyl, or Mefenpyr-diethyl” for “or cloquintocet-mexyl”, “Arezzo), winter barley (HORVW; Hordeum vulgare, cv. Boone),” for “Arezzo),”, “Tables M1” for “Tables L1”, “to M3,” for “to L3,”, “of 3” for “of 4”

[24] = test system: winter wheat (TRZAW; Triticum aetivum, cv. Arezzo); experiment: as above; conditions: approx. 14 d, second component alone 31 g a.i./ha
Text: as §2, with “with” for “with benoxacor,”, “or cloquintocet-mexyl, or Mefenpyr-diethyl” for “or cloquintocet-mexyl”, “Arezzo), winter barley (HORVW; Hordeum vulgare, cv. Boone),” for “Arezzo),”, “Tables M1” for “Tables L1”, “to M3,” for “to L3,”, “of 3” for “of 4”

O=C(O)CNCP(=O)(O)O [Glyphosate, glyphosate]
Observed result (plant response rating), SOLPT ([1]; applied alone at 62 g a.i./ha): 43
Observed result (plant response rating), SOLPT ([1]; applied alone at 125 g a.i./ha): 51
Observed result (plant response rating), BRADC ([2]; applied alone at 62 g a.i./ha): 68
Observed result (plant response rating), BRADC ([2]; applied alone at 125 g a.i./ha): 69
Observed result (plant response rating), ECHCG ([3]; applied alone at 62 g a.i./ha): 6
Observed result (plant response rating), ECHCG ([3]; applied alone at 125 g a.i./ha): 31
Observed result (plant response rating), AMBEL ([4]; applied alone at 62 g a.i./ha): 68
Observed result (plant response rating), AMBEL ([4]; applied alone at 125 g a.i./ha): 84
Observed result (plant response rating), AMATU ([5]; applied alone at 62 g a.i./ha): 11
Observed result (plant response rating), AMATU ([5]; applied alone at 125 g a.i./ha): 25
Observed result (plant response rating), ZEAMD ([6]; applied alone at 62 g a.i./ha): 68
Observed result (plant response rating), ZEAMD ([6]; applied alone at 125 g a.i./ha): 74
Observed result (plant response rating), PANDI ([7]; applied alone at 62 g a.i./ha): 28
Observed result (plant response rating), PANDI ([7]; applied alone at 125 g a.i./ha): 51
Observed result (plant response rating), SETFA ([8]; applied alone at 62 g a.i./ha): 74
Observed result (plant response rating), SETFA ([8]; applied alone at 125 g a.i./ha): 75
Observed result (plant response rating), DIGSA ([9]; applied alone at 62 g a.i./ha): 86
Observed result (plant response rating), DIGSA ([9]; applied alone at 125 g a.i./ha): 90
Observed result (plant response rating), ERICA ([10]; applied alone at 62 g a.i./ha): 0
Observed result (plant response rating), ERICA ([10]; applied alone at 125 g a.i./ha): 0
Observed result (plant response rating), AMAPA ([11]; applied alone at 62 g a.i./ha): 43
Observed result (plant response rating), AMAPA ([11]; applied alone at 125 g a.i./ha): 23
Observed result (plant response rating), GLXMA ([12]; applied alone at 62 g a.i./ha): 10
Observed result (plant response rating), GLXMA ([12]; applied alone at 125 g a.i./ha): 25
Observed result (plant response rating), ABUTH ([13]; applied alone at 62 g a.i./ha): 0
Observed result (plant response rating), ABUTH ([13]; applied alone at 125 g a.i./ha): 15

CCOC(=O)C1=NOC(c2ccccc2)(c2ccccc2)C1 [Isoxadifen-ethyl, isoxadifen-ethyl, reference compound]
ZEAMD plant response rating, 0 to 100 scale [14]: 0
SETFA plant response rating, 0 to 100 scale [15]: 0
ORYSS plant response rating, 0 to 100 scale [16]: 8
GLXMA plant response rating, 0 to 100 scale [17]: 10
TRZAW plant response rating, 0 to 100 scale [18]: 0
Plant response rating (0 to 100 scale) ZEAMD [19]: 0
Plant response rating (0 to 100 scale) SETFA [20]: 0
Plant response rating (0 to 100 scale) ORYSS [21]: 0
Plant response rating (0 to 100 scale) GLXMA [22]: 0
Plant response rating (0 to 100 scale) HORVW [23]: 0
Plant response rating (0 to 100 scale) TRZAW [24]: 0

CCNc1nc(Cl)nc(NC(C)C)n1 [Atrazine, atrazine]
Observed result (plant response rating), SOLPT ([1]; applied alone at 125 g a.i./ha): 28
Observed result (plant response rating), SOLPT ([1]; applied alone at 250 g a.i./ha): 64
Observed result (plant response rating), BRADC ([2]; applied alone at 125 g a.i./ha): 0
Observed result (plant response rating), BRADC ([2]; applied alone at 250 g a.i./ha): 0
Observed result (plant response rating), ECHCG ([3]; applied alone at 125 g a.i./ha): 96
Observed result (plant response rating), ECHCG ([3]; applied alone at 250 g a.i./ha): 100
Observed result (plant response rating), AMBEL ([4]; applied alone at 125 g a.i./ha): 48
Observed result (plant response rating), AMBEL ([4]; applied alone at 250 g a.i./ha): 80
Observed result (plant response rating), AMATU ([5]; applied alone at 125 g a.i./ha): 30
Observed result (plant response rating), AMATU ([5]; applied alone at 250 g a.i./ha): 39
Observed result (plant response rating), ZEAMD ([6]; applied alone at 125 g a.i./ha): 0
Observed result (plant response rating), ZEAMD ([6]; applied alone at 250 g a.i./ha): 0
Observed result (plant response rating), PANDI ([7]; applied alone at 125 g a.i./ha): 0
Observed result (plant response rating), PANDI ([7]; applied alone at 250 g a.i./ha): 0
Observed result (plant response rating), SETFA ([8]; applied alone at 125 g a.i./ha): 0
Observed result (plant response rating), SETFA ([8]; applied alone at 250 g a.i./ha): 0
Observed result (plant response rating), DIGSA ([9]; applied alone at 125 g a.i./ha): 0
Observed result (plant response rating), DIGSA ([9]; applied alone at 250 g a.i./ha): 0
Observed result (plant response rating), ERICA ([10]; applied alone at 125 g a.i./ha): 23
Observed result (plant response rating), ERICA ([10]; applied alone at 250 g a.i./ha): 83
Observed result (plant response rating), AMAPA ([11]; applied alone at 125 g a.i./ha): 76
Observed result (plant response rating), AMAPA ([11]; applied alone at 250 g a.i./ha): 74
Observed result (plant response rating), GLXMA ([12]; applied alone at 125 g a.i./ha): 15
Observed result (plant response rating), GLXMA ([12]; applied alone at 250 g a.i./ha): 33
Observed result (plant response rating), ABUTH ([13]; applied alone at 125 g a.i./ha): 0
Observed result (plant response rating), ABUTH ([13]; applied alone at 250 g a.i./ha): 10
